Test results from US10988523B2, “Modified lipidated Relaxin B chain peptides and their therapeutic use” (Sanofi, priority 2018, dated 2021).
*1 amine or outer side, *2 acyl side, *3 side chain or, on linkers, in order; H or OH if unused. Where a SMILES comes first, the peptide text is derived from it. Side-chain parts run from the residue outwards. [ ]: non-standard residue; d: D form. The star is where a group is joined. X4 = CCCCCCCCCCCCCCCC(=O)N[C@@H](CCC(=O)N[C@@H](CCC(=O)NCCCC[C@H](NC(=O)CC[C@H](NC(=O)CC[C@H](NC(=O)CCC(=O)NCCCOCCOCCOCCCNC(=O)CCC(=O)NCCCOCCOCCOCCCNC(=O)CCC(=O)NCCCOCCOCCOCCCN*)C(=O)O)C(=O)O)C(N)=O)C(=O)O)C(=O)O; X6 = CCCCCCCCCCCCCCC(=O)N[C@@H](CCC(=O)N[C@@H](CCC(=O)NCCCC[C@H](NC(=O)CC[C@H](NC(=O)CC[C@H](NC(=O)CCC(=O)NCCCOCCOCCOCCCNC(=O)CCC(=O)NCCCOCCOCCOCCCNC(=O)CCC(=O)NCCCOCCOCCOCCCN*)C(=O)O)C(=O)O)C(N)=O)C(=O)O)C(=O)O; γGlu = O=C(O)[C@H](CCC(=O)[*:2])N[*:1]; Palmitoyl = CCCCCCCCCCCCCCCC(=O)*; αMeK = C[C@](N)(CCCCN)C(=O)O; Nle = CCCC[C@H](N)C(=O)O; AEEA = NCCOCCOCC(=O)O; Aib = CC(C)(N)C(=O)O

Tests used:
[1] = Stability testing of peptides in rat plasma or blood; format: in vitro ADME; details: 37° C.
Procedure: (§1) Prior to the testing of stability in plasma (or blood) of a peptide batch, its purity (HPLC-UV) was determined.
(§2) Rat and Human plasma: anti-coagulant sodium or lithium heparin.
(§3) Rat and Human blood: anti-coagulant sodium or lithium heparin. • Stock solution: • 100 μM solution of study compound in 50 mM Phosphate buffer pH 7.4. • 950 μL plasma (or blood) was pre-incubated for 5 min at 37° C. 50 μL of compound stock solution was added. Final compound concentration=5 μM. Vortex and transfer 1504, plasma (or blood) into an Eppendorf for each time point. The time points […] were carried out in duplicate for each species.
(§4) After incubation 150 μL, plasma (or blood) was extracted with 600 μL, Acetonitrile containing with 1% TFA. Then, vortexed and centrifuged 10 min at 14600 rpm. 200 μL supernatant was dried under N2. The sample was reconstituted in 200 μL of H2O/CH3CN 98/2+0.1% FA+50 ng/ml Labetalol and analyzed using the analytical system used in solubility and stability studies.
(§5) For determination of the amount of the remaining peptide, the peak areas of the target compound at t0 and each time point […] were compared, resulting in “% remaining peptide”, following the equation: % remaining peptide=[(peak area peptide time)×100]/peak area peptide t0. The stability is expressed as “% remaining peptide”.

RXFP1 = target: T1, RXFP1 (Homo sapiens, UniProt Q9HBX9); test: OVCAR5 cAMP assay (HTRF), RXFP1 agonist activity; format: cell-based; details: for EC50: OVCAR5 cells, cAMP HTRF, read-out: EC50 (nM), OVCAR 5 cells (cAMP); for Emax: OVCAR-5, maximal cAMP relative to H2-relaxin maximum (100%), read-out: EMax, OVCAR 5 cells (cAMP)
T1 construct: OVCAR5 cells expressing endogenous RXFP1; endogenous in cells; host or cells: OVCAR5 cells
T1 sequence (Q9HBX9 1-757): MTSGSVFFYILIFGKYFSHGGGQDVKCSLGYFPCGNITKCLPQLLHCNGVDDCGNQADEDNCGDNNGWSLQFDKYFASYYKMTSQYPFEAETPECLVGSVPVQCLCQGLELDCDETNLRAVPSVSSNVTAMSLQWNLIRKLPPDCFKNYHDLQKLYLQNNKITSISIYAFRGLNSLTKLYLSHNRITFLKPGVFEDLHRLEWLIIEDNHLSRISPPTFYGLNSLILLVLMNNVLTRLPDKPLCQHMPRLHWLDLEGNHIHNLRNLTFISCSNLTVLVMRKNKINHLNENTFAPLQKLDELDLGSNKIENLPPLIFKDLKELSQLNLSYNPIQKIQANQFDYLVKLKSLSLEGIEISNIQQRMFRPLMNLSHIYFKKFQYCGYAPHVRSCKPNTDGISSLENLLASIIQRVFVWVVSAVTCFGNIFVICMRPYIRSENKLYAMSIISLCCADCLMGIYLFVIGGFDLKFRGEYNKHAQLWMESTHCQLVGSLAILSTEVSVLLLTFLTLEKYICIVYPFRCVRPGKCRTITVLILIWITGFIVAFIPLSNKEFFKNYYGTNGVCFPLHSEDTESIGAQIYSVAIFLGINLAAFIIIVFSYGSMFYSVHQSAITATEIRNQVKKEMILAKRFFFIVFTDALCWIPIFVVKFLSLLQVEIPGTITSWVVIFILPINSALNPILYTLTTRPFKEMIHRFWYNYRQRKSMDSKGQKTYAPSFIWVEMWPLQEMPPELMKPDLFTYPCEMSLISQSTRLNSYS
How it was run: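 cAMP accumulation readout: after 1 mM IBMX for 40 min, endogenous-RXFP1 OVCAR5 cells got rising peptide concentrations without FCS, 30 min, 37° C, then lysis with HTRF cAMP reagents. Nonlinear regression gave EC50; Emax expressed relative to H2-relaxin maximum, same occasion.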

[2] = Stability testing of peptides in human plasma or blood; format: in vitro ADME; details: 37° C.
Procedure: as §1, §2, §3, §4, §5

[3] = Pharmacokinetic (PK) determination after i.v. or s.c. administration to rats; format: in vivo, Sprague Dawley rats; details: Sprague Dawley, Rat PK; for C0 / half-life: iv, 1 mg/kg i.v.; for C0: extrapolated plasma concentration at t=0, read-out: C0; for half-life / Cmax / Tmax / bioavailability: plasma; for half-life: read-out: T½ (converted); for Cmax / Tmax: sc, 3 mg/kg s.c.; for bioavailability: subcutaneous, 3 mg/kg s.c. vs 1 mg/kg i.v., dose-corrected AUC ratio
How it was run: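 Non-compartmental analysis of plasma LC/MS data (protein precipitation, BLQ taken as zero) gave T½, C0 (i.v.), Cmax/Tmax (s.c.) and F% from dose-corrected AUCs. Dosing: 3 mg/kg s.c. or 1 mg/kg i.v. in PBS to Sprague Dawley rats, purity- and salt-corrected.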

| SMILES | Rat plasma stability % remaining T = 0 ([1]; rat plasma or blood, T = 0 (reference), 5 μM) [%] | remaining at 1 h, 5 µM ([1]; rat plasma, 1 h, read-out: Rat plasma stability % remaining 1 h) [%] | remaining at 4 h, 5 µM ([1]; rat plasma, 4 h, read-out: Rat plasma stability % remaining 4 h) [%] | EC50 (RXFP1) [nM] | Emax (RXFP1) [%] | Human Plasma stability % remaining T = 0 ([2]; human plasma or blood, T = 0 (reference), 5 μM) [%] | remaining at 1 h, 5 µM ([2]; human plasma, 1 h, read-out: Human Plasma stability % remaining 1 h) [%] | remaining at 4 h, 5 µM ([2]; human plasma, 4 h, read-out: Human Plasma stability % remaining 4 h) [%] | C0 [3] [µM] | half-life [3] [min] | Cmax [3] [nM] | Tmax [3] [h] | bioavailability [3] [%] |
| --- | --- | --- | --- | --- | --- | --- | --- | --- | --- | --- | --- | --- | --- |
| CCCCCCCCCCCCCCCC(=O)N[C@@H](CCC(=O)NCCCC[C@H](NC(=O)CC[C@H](NC(=O)CC[C@H](NC(=O)CC[C@H](NC(=O)COCCOCCNC(=O)COCCOCCNC(=O)COCCOCCNC(=O)[C@H](CCCCN)NC(=O)[C@H](CCCCN)NC(=O)[C@H](CCCNC(=N)N)NC(=O)C(C)(C)NC(=O)[C@H](CO)NC(=O)[C@H](Cc1c[nH]c2ccccc12)NC(=O)[C@@H](NC(=O)[C@H](CO)NC(=O)[C@H](CCCC)NC(=O)CNC(=O)[C@H](CCC(=O)O)NC(=O)C(C)(C)NC(=O)C(C)(C)NC(=O)[C@@H](NC(=O)[C@H](CCC(N)=O)NC(=O)[C@H](C)NC(=O)[C@H](CCCNC(=N)N)NC(=O)[C@@H](NC(=O)[C@H](CCCCN)NC(=O)[C@H](CCC(=O)O)NC(=O)[C@H](CCCNC(=N)N)NC(=O)CNC(=O)[C@H](CCC(=O)O)NC(=O)[C@H](CC(C)C)NC(C)=O)C(C)C)[C@@H](C)CC)[C@@H](C)O)C(=O)O)C(=O)O)C(=O)O)C(N)=O)C(=O)O [compound 110] (Ac-LEGREKVRAQI[Aib][Aib]EG[Nle]STWS[Aib]RKK[AEEA][AEEA][AEEA][γGlu][γGlu][γGlu]K([γGlu-Palmitoyl])-NH2) | 100 | 96 | 98 | 0.17 | 80 | 100 | 101 | 114 |  |  |  |  |  |
| CCCCCCCCCCCCCCCC(=O)N[C@@H](CCC(=O)N[C@@H](CCC(=O)NCCCC[C@H](NC(=O)CC[C@H](NC(=O)CC[C@H](NC(=O)CCC(=O)NCCCOCCOCCOCCCNC(=O)CCC(=O)NCCCOCCOCCOCCCNC(=O)CCC(=O)NCCCOCCOCCOCCCNC(=O)[C@H](CCCCNC(C)=O)NC(=O)[C@H](C)NC(=O)[C@H](CCCNC(=N)N)NC(=O)[C@](C)(CCCCN)NC(=O)[C@H](CO)NC(=O)[C@H](Cc1ccccc1)NC(=O)[C@@H](NC(=O)[C@H](CO)NC(=O)[C@H](CCCC)NC(=O)CNC(=O)[C@H](CCC(=O)O)NC(=O)C(C)(C)NC(=O)C(C)(C)NC(=O)[C@@H](NC(=O)[C@H](CCCCNC(C)=O)NC(=O)[C@H](C)NC(=O)[C@H](CCCNC(=N)N)NC(=O)[C@@H](NC(=O)[C@H](CCCCN)NC(=O)[C@H](CCC(=O)O)NC(=O)[C@H](CCCNC(=N)N)NC(=O)CNC(=O)[C@H](CCC(=O)O)NC(=O)[C@H](CC(C)C)NC(C)=O)C(C)C)[C@@H](C)CC)[C@@H](C)O)C(=O)O)C(=O)O)C(N)=O)C(=O)O)C(=O)O [compound 169] (Ac-LEGREKVRAK(Ac)I[Aib][Aib]EG[Nle]STFS[αMeK]RAK(Ac)-X4) |  |  |  | 0.01 | 89 |  |  |  | 3.04 | 348 | 1890 | 6 | 69 |
| CCCCCCCCCCCCCCC(=O)N[C@@H](CCC(=O)N[C@@H](CCC(=O)NCCCC[C@H](NC(=O)CC[C@H](NC(=O)CC[C@H](NC(=O)CCC(=O)NCCCOCCOCCOCCCNC(=O)CCC(=O)NCCCOCCOCCOCCCNC(=O)CCC(=O)NCCCOCCOCCOCCCNC(=O)[C@H](CCCCNC(C)=O)NC(=O)[C@H](C)NC(=O)[C@H](CCCNC(=N)N)NC(=O)[C@](C)(CCCCN)NC(=O)[C@H](CO)NC(=O)[C@H](Cc1ccccc1)NC(=O)[C@@H](NC(=O)[C@H](CO)NC(=O)[C@H](CCC(N)=O)NC(=O)CNC(=O)[C@H](CCC(=O)O)NC(=O)C(C)(C)NC(=O)C(C)(C)NC(=O)[C@@H](NC(=O)[C@H](CCCCNC(C)=O)NC(=O)[C@H](C)NC(=O)[C@H](CCCNC(=N)N)NC(=O)[C@@H](NC(=O)[C@H](CCCCN)NC(=O)[C@H](CCC(=O)O)NC(=O)[C@H](CCCNC(=N)N)NC(=O)CNC(=O)[C@H](CCC(=O)O)NC(=O)[C@H](CC(C)C)NC(C)=O)C(C)C)[C@@H](C)CC)[C@@H](C)O)C(=O)O)C(=O)O)C(N)=O)C(=O)O)C(=O)O [compound 184] (Ac-LEGREKVRAK(Ac)I[Aib][Aib]EGQSTFS[αMeK]RAK(Ac)-X6) |  |  |  |  | 100 |  |  |  | 4.7 | 438 | 2800 | 7 | 71 |
